In general, inhibition refers to the relative decrease from the control value, in per cent.

Read-outs that look alike come from different tables or passages of the source.

Assay in all cases: SelectScreen Kinase Profiling, single point inhibition and IC50 for off-target kinases
Holding throughout (assay type): biochemical

Test [1] addresses T1, off-target kinases (Homo sapiens, UniProt Q13873).
T1 sequence (Q13873 27-1038): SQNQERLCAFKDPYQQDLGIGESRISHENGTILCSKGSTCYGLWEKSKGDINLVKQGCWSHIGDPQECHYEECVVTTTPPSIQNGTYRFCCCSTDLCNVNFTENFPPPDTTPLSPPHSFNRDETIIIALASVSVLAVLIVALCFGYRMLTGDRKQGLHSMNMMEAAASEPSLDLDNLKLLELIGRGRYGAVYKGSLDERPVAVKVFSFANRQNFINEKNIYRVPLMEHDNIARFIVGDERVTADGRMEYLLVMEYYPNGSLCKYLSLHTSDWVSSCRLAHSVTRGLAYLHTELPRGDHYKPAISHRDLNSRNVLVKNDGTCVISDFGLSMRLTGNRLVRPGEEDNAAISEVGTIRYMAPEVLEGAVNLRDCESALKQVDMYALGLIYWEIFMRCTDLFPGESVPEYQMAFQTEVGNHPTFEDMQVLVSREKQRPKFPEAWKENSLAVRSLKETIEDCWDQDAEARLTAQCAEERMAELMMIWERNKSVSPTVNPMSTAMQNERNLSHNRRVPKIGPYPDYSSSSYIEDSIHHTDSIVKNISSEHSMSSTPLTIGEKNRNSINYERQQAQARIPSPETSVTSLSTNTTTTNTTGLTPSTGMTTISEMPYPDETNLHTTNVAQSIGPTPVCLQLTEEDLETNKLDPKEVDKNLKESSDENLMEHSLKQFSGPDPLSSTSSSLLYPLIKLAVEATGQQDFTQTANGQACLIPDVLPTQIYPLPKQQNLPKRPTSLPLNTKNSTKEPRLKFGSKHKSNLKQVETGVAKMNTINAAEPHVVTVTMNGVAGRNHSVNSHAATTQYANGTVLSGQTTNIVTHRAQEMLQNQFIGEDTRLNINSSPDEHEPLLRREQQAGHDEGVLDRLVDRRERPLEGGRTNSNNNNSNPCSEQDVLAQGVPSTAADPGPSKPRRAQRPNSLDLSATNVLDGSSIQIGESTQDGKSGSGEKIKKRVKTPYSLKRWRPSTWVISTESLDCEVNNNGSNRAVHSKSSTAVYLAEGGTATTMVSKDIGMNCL
The conditions noted are these: BMPR2, LanthaScreen Binding. As for the experimental part: (§1) Biochemical single point inhibition and IC50 concentrations for TBK1, IKKε (IKBKE), and off-target kinases were determined at ThermoFisher Scientific using SelectScreen Kinase Profiling Services (Madison, Wis., USA) (Tables S4A and S4B-1-7). To determine cellular potency, the human colorectal cancer carcinoma cell line HCT116 (ATCC, Manassas, Va.) was maintained in T175 flasks in complete RPMI medium; RPMI 1640 supplemented with 10% FBS, 1× Penicillin-Streptomycin solution and 1×MEM (non-essential amino acids). HCT116 cells were grown to 90-95% confluency in T175 flasks containing complete RPMI medium and transfected in bulk using Lipofectamine 2000 (Invitrogen, Carlsbad, Calif.) with 70 μg of ISG54-luciferase reporter plasmid (Elim Biopharmaceuticals Inc., Hayward, Calif.). The reporter plasmid contains a luciferase gene expression cassette under the transcriptional regulation of the promoter of the human interferon stimulated gene 54 (ISG54). Transfection of the cells was allowed to take place for 6 hours, after which the cells were harvested by treatment with 0.25% trypsin EDTA (Corning Inc., Corning, N.Y.). Trypsinized cells were added to 384-well poly-d-lysine treated black clear bottom tissue culture assay plates (Greiner Bio-One GmbH, Kremsmünster, Austria) at a density of 20,000 cells/well in 80 μL of complete RPMI medium and incubated overnight. After 16-18 hours post-transfection, the assay plates were washed with PBS (Corning Inc., Corning, N.Y.), followed by addition of 80 μL/well of serum-free RPMI 1640 medium containing 1× Penicillin-Streptomycin solution, 1×MEM and 350 nL of DMSO or titrations of Compound 1. Compound 1 titrations were generated by 1.5-fold dilution steps in two overlapping serial dilution series to generate a 40-point compound dose range. After incubation at 37° C. for 1 hour, the cells were stimulated with Poly(I:C) (InvivoGen, San Diego, Calif.) at a final concentration of 15 μg/mL in Optimem media (Life Technologies, Rockville, Md.). The assay plates were incubated for 5 hours at 37° C., followed by addition of One-Glo luciferase firefly reagent (Promega, Madison, Wis.) at 1:1 volume/well and luminescence was measured in an EnVision Multilabel Plate Reader (PerkinElmer, Santa Clara, Calif.). The EC50 values were calculated from the fit of the dose-response curves to a four-parameter equation. All EC50 values represent geometric mean values of a minimum of four determinations.
(In TR-FRET formats the signal depends on donor and acceptor labels being close together.)

Test [2] addresses off-target kinases (Homo sapiens, UniProt Q9H4B4). The conditions noted are these: PLK3, ATP Km app, ZLYTE. Here is the method:
as §1

In test [3] the target is off-target kinases (Homo sapiens, UniProt Q00535). Here is the method:
as §1

In test [4] the target is off-target kinases (Homo sapiens, UniProt P36507). The conditions noted are these: MAP2K2 (MEK2). Here is the method: as §1
Sequence of off-target kinases (Homo sapiens, UniProt P36507) (P36507 whole entry): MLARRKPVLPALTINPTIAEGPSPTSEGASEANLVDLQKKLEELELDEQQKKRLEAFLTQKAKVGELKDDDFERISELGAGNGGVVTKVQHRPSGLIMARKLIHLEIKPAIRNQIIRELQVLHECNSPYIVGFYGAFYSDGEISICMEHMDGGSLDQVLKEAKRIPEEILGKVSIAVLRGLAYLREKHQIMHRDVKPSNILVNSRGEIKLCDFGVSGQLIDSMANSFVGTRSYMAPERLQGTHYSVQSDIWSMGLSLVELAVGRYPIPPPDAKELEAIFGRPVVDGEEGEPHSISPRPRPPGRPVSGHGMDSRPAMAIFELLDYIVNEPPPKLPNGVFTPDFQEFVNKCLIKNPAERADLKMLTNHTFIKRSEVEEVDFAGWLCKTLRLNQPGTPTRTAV

Sequence of off-target kinases (Homo sapiens, UniProt Q00535) (Q00535 whole entry): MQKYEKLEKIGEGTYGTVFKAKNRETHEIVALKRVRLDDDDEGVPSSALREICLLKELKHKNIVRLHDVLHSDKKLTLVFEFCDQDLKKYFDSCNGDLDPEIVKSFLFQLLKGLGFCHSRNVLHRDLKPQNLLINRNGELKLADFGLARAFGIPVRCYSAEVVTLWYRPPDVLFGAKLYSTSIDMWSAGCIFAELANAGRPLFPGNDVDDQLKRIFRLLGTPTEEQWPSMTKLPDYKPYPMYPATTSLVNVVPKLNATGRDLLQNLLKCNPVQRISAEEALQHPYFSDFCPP
Sequence of off-target kinases (Homo sapiens, UniProt Q9H4B4) (Q9H4B4 whole entry): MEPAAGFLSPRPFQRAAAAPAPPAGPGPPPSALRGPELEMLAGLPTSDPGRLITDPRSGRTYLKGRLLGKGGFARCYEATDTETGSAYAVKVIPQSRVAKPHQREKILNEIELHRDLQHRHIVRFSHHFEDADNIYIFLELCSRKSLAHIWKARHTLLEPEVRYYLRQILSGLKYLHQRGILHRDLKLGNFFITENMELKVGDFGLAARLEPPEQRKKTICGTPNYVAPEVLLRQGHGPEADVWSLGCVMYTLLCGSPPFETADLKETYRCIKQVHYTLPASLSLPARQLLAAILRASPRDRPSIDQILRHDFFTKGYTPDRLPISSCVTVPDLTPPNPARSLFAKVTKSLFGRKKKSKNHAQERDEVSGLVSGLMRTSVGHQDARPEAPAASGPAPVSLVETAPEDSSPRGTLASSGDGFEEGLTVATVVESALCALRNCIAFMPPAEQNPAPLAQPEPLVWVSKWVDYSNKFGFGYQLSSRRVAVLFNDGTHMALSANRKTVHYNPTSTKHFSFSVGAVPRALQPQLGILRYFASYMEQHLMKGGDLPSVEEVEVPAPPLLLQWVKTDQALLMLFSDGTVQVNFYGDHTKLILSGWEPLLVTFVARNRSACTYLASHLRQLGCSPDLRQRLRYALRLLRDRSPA

`N#Cc1cc(-c2ncnc(Nc3ccc(N4CCN(C5COC5)CC4)cc3)n2)ccc1OC1CCOCC1` [Compound 1, 5-(4-((4-(4-(oxetan-3-yl)piperazin-1-yl)phenyl)amino)-1,3,5-triazin-2-yl)-2-((tetrahydro-2H-pyran-4-yl)oxy)benzonitrile]: the inhibition at off-target kinases [1] (read-out: % Inhibition 1) amounted to 50%; on off-target kinases [1] (read-out: % Inhibition 2), 47%; on off-target kinases [1] (read-out: % Inhibition Avg) it was 49%; on off-target kinases [2] (read-out: % Inhibition 1) it was 80%; on off-target kinases [2] (read-out: % Inhibition 2), 76%; on off-target kinases [2] (read-out: % Inhibition Avg), 78%. For the same molecule, the inhibition is 1% at off-target kinases [3] (CDK5 (Inactive), LanthaScreen Binding, read-out: % Inhibition 1); -2% at off-target kinases [3] (CDK5 (Inactive), LanthaScreen Binding, read-out: % Inhibition 2); 3% on off-target kinases [3] (CDK5/p25, ZLYTE, ATP Km app, read-out: % Inhibition 1); 1% on off-target kinases [3] (CDK5/p25, ZLYTE, ATP Km app, read-out: % Inhibition 2); 2% on off-target kinases [3] (CDK5/p25, ZLYTE, ATP Km app, read-out: % Inhibition Avg); 7% at off-target kinases [3] (CDK5/p35, ZLYTE, ATP Km app, read-out: % Inhibition 1). Also, the inhibition was 2% on off-target kinases [3] (CDK5/p35, ZLYTE, ATP Km app, read-out: % Inhibition 2); 5% on off-target kinases [3] (CDK5/p35, ZLYTE, ATP Km app, read-out: % Inhibition Avg); -1% on off-target kinases [3] (read-out: % Inhibition Avg); 5% at off-target kinases [4] (LanthaScreen Binding, read-out: % Inhibition 1); 5% on off-target kinases [4] (LanthaScreen Binding, read-out: % Inhibition 2); 5% on off-target kinases [4] (LanthaScreen Binding, read-out: % Inhibition Avg). Moreover, the inhibition amounted to 13% on off-target kinases [4] (ZLYTE, ATP 100, read-out: % Inhibition 1); 2% at off-target kinases [4] (ZLYTE, ATP 100, read-out: % Inhibition 2); 8% on off-target kinases [4] (ZLYTE, ATP 100, read-out: % Inhibition Avg).
